This experiment has as its system P388 leukemia ip, CD2F1 mice, survival T/C. The experiment in a line: NCI In Vivo Anticancer Drug Screen. Data for tumor model P388 Leukemia (intraperitoneal) in CD2F1 (CDF1) mice. Particulars: endpoint: median survival time, higher = longer survival. In a few lines:
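Mice carrying the transplanted tumor received test compound or vehicle. Survival was recorded in each group, and the value is the treated-group measurement divided by that of the vehicle-treated control group.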

The mark [1] stands for this setting: dose: 60.0 mg/kg/injection, schedule: Q01DX005 (ip), vehicle: saline with Tween-80.
Setting [2] is: dose: 120.0 mg/kg/injection, schedule: Q01DX005 (ip), vehicle: saline with Tween-80.
Setting [3] is: dose: 240.0 mg/kg/injection, schedule: Q01DX005 (ip), vehicle: saline with Tween-80.
[4] abbreviates: dose: 50.0 mg/kg/injection, schedule: Q01DX009 (ip), vehicle: saline with Tween-80.
Where [5] appears, read: dose: 100.0 mg/kg/injection, schedule: Q01DX009 (ip), vehicle: saline with Tween-80.
The mark [6] stands for this setting: dose: 200.0 mg/kg/injection, schedule: Q01DX009 (ip), vehicle: saline with Tween-80.
[7] abbreviates: dose: 50.0 mg/kg/injection, schedule: Q01DX009 (ip), vehicle: Klucel (hydroxypropylcellulose) (HPC).
[8] abbreviates: dose: 100.0 mg/kg/injection, schedule: Q01DX009 (ip), vehicle: Klucel (hydroxypropylcellulose) (HPC).
The mark [9] stands for this setting: dose: 25.0 mg/kg/injection, schedule: Q01DX009 (ip), vehicle: Klucel (hydroxypropylcellulose) (HPC).

Inconclusive results and toxic doses are left out.

Regarding `O=NN(CCCl)C(=O)Oc1c(Cl)cc(Cl)cc1Cl`, the T/C reads like this: (dose: 50.0 mg/kg/injection, schedule: Q01DX001 (ip), vehicle: saline with Tween-80) 163 % of control; (dose: 67.0 mg/kg/injection, schedule: Q01DX001 (ip), vehicle: saline with Tween-80) 99 % of control; (dose: 100.0 mg/kg/injection, schedule: Q01DX001 (ip), vehicle: saline with Tween-80) 193 % of control.

Turning to `COc1cc2c(cc1O)CCCCC2`, the T/C runs as follows: (dose: 100.0 mg/kg/injection, schedule: Q01DX009 (sc), vehicle: olive oil, sesame oil, peanut oil) 101 % of control; (dose: 200.0 mg/kg/injection, schedule: Q01DX009 (sc), vehicle: olive oil, sesame oil, peanut oil) 101 % of control; (dose: 400.0 mg/kg/injection, schedule: Q01DX009 (sc), vehicle: olive oil, sesame oil, peanut oil) 104 % of control.

Take `Cc1ccc(N2CC3CC4(C)C=CC3(C2)O4)cc1` (stereo unspecified): the T/C runs as follows: under setting [1], 103 % of control; under setting [2], 111 % of control; under setting [3], 98 % of control.

On to `CCC(=O)OCCN(CCOC(=O)CC)C(=O)C(C)OC(=O)CC` (stereo unspecified), for which the T/C runs as follows: (dose: 25.0 mg/kg/injection, schedule: Q01DX005 (ip), vehicle: saline) 105 % of control; (dose: 50.0 mg/kg/injection, schedule: Q01DX005 (ip), vehicle: saline) 110 % of control; (dose: 100.0 mg/kg/injection, schedule: Q01DX005 (ip), vehicle: saline) 105 % of control; (dose: 200.0 mg/kg/injection, schedule: Q01DX005 (ip), vehicle: saline) 110 % of control.

As to `OC1c2ccccc2OC2(N3CCCC3)CCCCC12` (stereo unspecified), the T/C by setting is: under setting [4], 98 % of control; under setting [5], 94 % of control; under setting [6], 91 % of control.

For the compound `COc1ccc2c(c1)CC[C@@H]1[C@@H]2CC[C@]2(C)/C(=N\O)CC[C@@H]12`, the T/C runs as follows: (dose: 100.0 mg/kg/injection, schedule: Q04DX003 (ip), vehicle: saline with Tween-80) 90 % of control; (dose: 200.0 mg/kg/injection, schedule: Q04DX003 (ip), vehicle: saline with Tween-80) 90 % of control; (dose: 400.0 mg/kg/injection, schedule: Q04DX003 (ip), vehicle: saline with Tween-80) 100 % of control.

Consider `Nc1c(S(=O)(=O)O)cc(Nc2ccc(S(=O)(=O)O)c(Nc3nc(Cl)nc(Cl)n3)c2)c2c1C(=O)c1ccccc1C2=O`, for which the T/C is 118 % of control (dose: 60.0 mg/kg/injection, schedule: Q01DX005 (ip), vehicle: saline); 110 % of control (dose: 120.0 mg/kg/injection, schedule: Q01DX005 (ip), vehicle: saline); 110 % of control (dose: 240.0 mg/kg/injection, schedule: Q01DX005 (ip), vehicle: saline).

For `O=C(c1ccc(-c2ccccc2)cc1)C1(Br)CCCCC1`, the T/C is, setting by setting: under setting [5], 100 % of control; under setting [6], 100 % of control; (dose: 400.0 mg/kg/injection, schedule: Q01DX009 (ip), vehicle: saline with Tween-80) 100 % of control.

Turning to `CCOc1ccc(N=Nc2c(C)nn(C(N)=S)c2OCC)cc1`, the T/C was 100 % of control (dose: 15.0 mg/kg/injection, schedule: Q01DX005 (ip), vehicle: Klucel (hydroxypropylcellulose) (HPC)) and 97 % of control (dose: 30.0 mg/kg/injection, schedule: Q01DX005 (ip), vehicle: Klucel (hydroxypropylcellulose) (HPC)).

As for `CCOC(=O)/C(=C(\C)N)n1[nH]c(=O)ccc1=O`, the T/C (dose: 100.0 mg/kg/injection, schedule: Q04DX002 (ip), vehicle: saline) is 98 % of control; the T/C (dose: 200.0 mg/kg/injection, schedule: Q04DX002 (ip), vehicle: saline) was 100 % of control; the T/C (dose: 400.0 mg/kg/injection, schedule: Q04DX002 (ip), vehicle: saline) was 100 % of control.

As to `CCCCC1(O)C(=O)N(c2ccccc2)N(c2ccccc2)C1=O`, the T/C runs as follows: (dose: 60.0 mg/kg/injection, schedule: Q01DX005 (ip), vehicle: Klucel (hydroxypropylcellulose) (HPC)) 102 % of control; (dose: 120.0 mg/kg/injection, schedule: Q01DX005 (ip), vehicle: Klucel (hydroxypropylcellulose) (HPC)) 102 % of control; (dose: 240.0 mg/kg/injection, schedule: Q01DX005 (ip), vehicle: Klucel (hydroxypropylcellulose) (HPC)) 96 % of control.

In the case of `COc1ccc(CC(C#N)c2ccc(Cl)cc2)cc1` (stereo unspecified), the T/C is 107 % of control under setting [7]; 101 % of control under setting [8]; 98 % of control (dose: 200.0 mg/kg/injection, schedule: Q01DX009 (ip), vehicle: Klucel (hydroxypropylcellulose) (HPC)); 98 % of control (dose: 400.0 mg/kg/injection, schedule: Q01DX009 (ip), vehicle: Klucel (hydroxypropylcellulose) (HPC)).

On to `NC(=O)c1c[n+]([O-])ccc1[N+](=O)[O-]`, for which the T/C was 108 % of control (dose: 6.25 mg/kg/injection, schedule: Q01DX009 (ip), vehicle: Klucel (hydroxypropylcellulose) (HPC)); 117 % of control (dose: 12.5 mg/kg/injection, schedule: Q01DX009 (ip), vehicle: Klucel (hydroxypropylcellulose) (HPC)); 117 % of control under setting [9]; 119 % of control under setting [7].

On to `O=c1[nH]c(=O)c2c(Br)[nH]nc2[nH]1`, for which the T/C reads like this: (dose: 100.0 mg/kg/injection, schedule: Q01DX001 (ip), vehicle: Klucel (hydroxypropylcellulose) (HPC)) 110 % of control; (dose: 200.0 mg/kg/injection, schedule: Q01DX001 (ip), vehicle: Klucel (hydroxypropylcellulose) (HPC)) 103 % of control.

As for `Cc1cccc(=O)n1CCC#N`, the T/C runs as follows: (dose: 100.0 mg/kg/injection, schedule: Q01DX009 (ip), vehicle: saline) 95 % of control; (dose: 200.0 mg/kg/injection, schedule: Q01DX009 (ip), vehicle: saline) 100 % of control; (dose: 400.0 mg/kg/injection, schedule: Q01DX009 (ip), vehicle: saline) 100 % of control.

On to `CC(C)c1ccc2nc3ccc(C(=O)NCCN4CCN(c5ccccc5)CC4)cn3c(=O)c2c1`, for which the T/C by setting is: under setting [1], 97 % of control; under setting [2], 89 % of control; under setting [3], 92 % of control.

In the case of `COP(=S)(NC(C)C)Oc1ccc(C)cc1[N+](=O)[O-]` (stereo unspecified), the T/C reads like this: under setting [4], 98 % of control; under setting [5], 100 % of control; under setting [6], 90 % of control.

For the compound `C1=CN2C3=NCCN3C3=NCCN3C2c2ccccc21` (stereo unspecified), the T/C (dose: 12.5 mg/kg/injection, schedule: Q04DX002 (ip), vehicle: Klucel (hydroxypropylcellulose) (HPC)) is 102 % of control; the T/C (dose: 25.0 mg/kg/injection, schedule: Q04DX002 (ip), vehicle: Klucel (hydroxypropylcellulose) (HPC)) is 99 % of control; the T/C (dose: 50.0 mg/kg/injection, schedule: Q04DX002 (ip), vehicle: Klucel (hydroxypropylcellulose) (HPC)) was 102 % of control.

Regarding `CCCCCCCCCCCCNC(=S)C(=S)NCCCCCCCCCCCC`, the T/C by setting is: under setting [9], 98 % of control; under setting [7], 95 % of control; under setting [8], 94 % of control.

On to `FC(F)(F)c1ccccc1NC(=S)SCc1ccc2c(c1)OCO2`, for which the T/C (dose: 12.5 mg/kg/injection, schedule: Q01DX009 (ip), vehicle: saline) was 97 % of control; the T/C (dose: 25.0 mg/kg/injection, schedule: Q01DX009 (ip), vehicle: saline) was 90 % of control; the T/C (dose: 50.0 mg/kg/injection, schedule: Q01DX009 (ip), vehicle: saline) was 100 % of control.

For `CC1=CC(=O)C=CC1=Nc1ccc(N(C)C)cc1`, the T/C is, setting by setting: (dose: 25.0 mg/kg/injection, schedule: Q01DX009 (ip), vehicle: saline with Tween-80) 108 % of control; under setting [4], 109 % of control.

Take `[Cl][Pd][Cl]`: the T/C (dose: 3.0 mg/kg/injection, schedule: Q01DX009 (ip), vehicle: saline with Tween-80) is 95 % of control; the T/C (dose: 6.0 mg/kg/injection, schedule: Q01DX009 (ip), vehicle: saline with Tween-80) was 113 % of control; the T/C (dose: 12.0 mg/kg/injection, schedule: Q01DX009 (ip), vehicle: saline with Tween-80) is 122 % of control.
